Counter-ions that a name gives are not always drawn.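 These data come from cells grown in 96-well plates and exposed to compound for 48 hours at five concentrations. At the GI50, growth is halved.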 The source made the active and inactive calls. No stated cut-off is given here; in the data, active = GI50 up to about 1.1 µM and inactive = higher.
How the values were obtained:
Assay in all cases: NCI anticancer screen, dose series, 48 h
A498 = system: A498
MDA-MB-231 = system: MDA-MB-231
SK-MEL-2 = system: SK-MEL-2
SW-620 = system: SW-620
SK-OV-3 = system: SK-OV-3
KM12 = system: KM12
UO-31 = system: UO-31
PC-3 = system: PC-3
DU-145 = system: DU-145
OVCAR-8 = system: OVCAR-8
NCI/ADR-RES = system: NCI/ADR-RES
HCT-15 = system: HCT-15
HOP-92 = system: HOP-92
MDA-MB-435 = system: MDA-MB-435
Hs-578T = system: Hs-578T
HT-29 = system: HT-29
SN12C = system: SN12C
NCI-H226 = system: NCI-H226
OVCAR-3 = system: OVCAR-3
UACC-257 = system: UACC-257

Measured: GI50

Cc1cc(C)c2c(SCc3ccc(Cl)cc3Cl)nc(N)nc2n1
inactive: A498 > 100 µM | MDA-MB-231 > 100 µM | SK-MEL-2 50.1 µM | SW-620 > 100 µM | SK-OV-3 > 100 µM | KM12 > 100 µM | UO-31 23.5 µM | PC-3 35.6 µM | DU-145 > 100 µM | OVCAR-8 28.9 µM | NCI/ADR-RES > 100 µM | HOP-92 15.9 µM | MDA-MB-435 83 µM | Hs-578T 37.8 µM | HT-29 > 100 µM | SN12C 21.2 µM | NCI-H226 > 100 µM | OVCAR-3 20.6 µM | UACC-257 4.6 µM
> 100 µM: HCT-15

O=C(O)c1ccc2c(c1C(=O)O)C(=O)OC2(c1ccc(O)cc1)c1ccc(O)cc1
inactive: A498 > 100 µM | MDA-MB-231 > 100 µM | SK-MEL-2 > 100 µM | SW-620 > 100 µM | SK-OV-3 > 100 µM | KM12 > 100 µM | UO-31 > 100 µM | PC-3 > 100 µM | DU-145 > 100 µM | OVCAR-8 > 100 µM | NCI/ADR-RES > 100 µM | HOP-92 > 100 µM | MDA-MB-435 > 100 µM | Hs-578T > 100 µM | HT-29 > 100 µM | SN12C > 100 µM | NCI-H226 > 100 µM | OVCAR-3 > 100 µM | UACC-257 > 100 µM
> 100 µM: HCT-15

O=C1c2cc([N+](=O)[O-])ccc2NC2C(O)c3ccccc3N12 (configuration not stated)
active: Hs-578T 0.706 µM
inactive: A498 18.3 µM | MDA-MB-231 31.6 µM | SK-MEL-2 33.3 µM | SK-OV-3 17.7 µM | KM12 42.7 µM | UO-31 25.9 µM | PC-3 53 µM | DU-145 9.55 µM | OVCAR-8 23.3 µM | NCI/ADR-RES 23.5 µM | HOP-92 23.9 µM | MDA-MB-435 52.8 µM | HT-29 80.4 µM | SN12C 48.9 µM | NCI-H226 29.2 µM | OVCAR-3 20.4 µM | UACC-257 16 µM
29.3 µM: HCT-15

COc1ccc(/C=C2\N=C(SC)N(CN3CCOCC3)C2=O)cc1
30.7 µM: HCT-15
inactive: A498 34 µM | MDA-MB-231 > 100 µM | SK-MEL-2 > 100 µM | SW-620 22 µM | SK-OV-3 > 100 µM | KM12 78.3 µM | UO-31 49.8 µM | PC-3 49.2 µM | DU-145 65.9 µM | OVCAR-8 48.2 µM | NCI/ADR-RES 80.9 µM | HOP-92 5.38 µM | MDA-MB-435 74.8 µM | Hs-578T 59.2 µM | HT-29 27.5 µM | SN12C > 100 µM | NCI-H226 29.2 µM | OVCAR-3 90.6 µM

CC1(C)C2CC(=O)C1(C)C(O)C2Br (configuration not stated)
> 100 µM: HCT-15
inactive: A498 > 100 µM | MDA-MB-231 > 100 µM | SK-MEL-2 > 100 µM | SW-620 > 100 µM | SK-OV-3 > 100 µM | KM12 > 100 µM | UO-31 > 100 µM | PC-3 > 100 µM | DU-145 > 100 µM | OVCAR-8 > 100 µM | NCI/ADR-RES > 100 µM | HOP-92 > 100 µM | MDA-MB-435 > 100 µM | Hs-578T 98.2 µM | HT-29 > 100 µM | SN12C > 100 µM | NCI-H226 > 100 µM | OVCAR-3 > 100 µM

O=C1/C(=C/c2ccc(O)cc2)Oc2ccccc21
inactive: A498 > 100 µM | MDA-MB-231 > 100 µM | SK-MEL-2 > 100 µM | SW-620 > 100 µM | SK-OV-3 > 100 µM | KM12 90.6 µM | PC-3 > 100 µM | DU-145 > 100 µM | OVCAR-8 > 100 µM | NCI/ADR-RES > 100 µM | HOP-92 > 100 µM | MDA-MB-435 83.9 µM | Hs-578T > 100 µM | HT-29 > 100 µM | SN12C > 100 µM | NCI-H226 > 100 µM | OVCAR-3 > 100 µM | UACC-257 > 100 µM
> 100 µM: HCT-15

CCN(CC)c1ccc2cc(C(=O)Nc3ccc(C)cc3)c(=N)oc2c1
> 100 µM: HCT-15
inactive: A498 > 100 µM | MDA-MB-231 > 100 µM | SK-MEL-2 > 100 µM | SW-620 > 100 µM | SK-OV-3 > 100 µM | KM12 > 100 µM | PC-3 > 100 µM | DU-145 > 100 µM | OVCAR-8 > 100 µM | NCI/ADR-RES > 100 µM | HOP-92 > 100 µM | MDA-MB-435 > 100 µM | Hs-578T > 100 µM | HT-29 > 100 µM | SN12C > 100 µM | NCI-H226 > 100 µM | OVCAR-3 > 100 µM | UACC-257 > 100 µM

O=C1/C(=C/c2ccccc2[N+](=O)[O-])N=C(c2ccccc2)N1c1nc2ccccc2s1
inactive: A498 28.1 µM | MDA-MB-231 45.9 µM | SK-MEL-2 33.2 µM | SW-620 34.4 µM | KM12 17.9 µM | UO-31 31.6 µM | PC-3 31 µM | DU-145 20.9 µM | OVCAR-8 17.4 µM | NCI/ADR-RES 16.6 µM | HOP-92 21 µM | MDA-MB-435 19.4 µM | Hs-578T 19.1 µM | HT-29 35.4 µM | SN12C 25 µM | NCI-H226 41.3 µM | OVCAR-3 21.1 µM | UACC-257 65 µM
17.5 µM: HCT-15

C[N+](C)(C)/C=N\c1cccc2nsnc12
inactive: A498 > 100 µM | MDA-MB-231 > 100 µM | SK-MEL-2 > 100 µM | SK-OV-3 > 100 µM | UO-31 > 100 µM | PC-3 > 100 µM | DU-145 > 100 µM | OVCAR-8 > 100 µM | NCI/ADR-RES > 100 µM | HOP-92 > 100 µM | MDA-MB-435 > 100 µM | Hs-578T > 100 µM | HT-29 > 100 µM | SN12C > 100 µM | NCI-H226 > 100 µM | OVCAR-3 > 100 µM | UACC-257 > 100 µM
> 100 µM: HCT-15

c1csc(-c2nnc(C34CC5CC(CC(C5)C3)C4)o2)c1
38.1 µM: HCT-15
inactive: A498 16.9 µM | MDA-MB-231 17.7 µM | SK-MEL-2 24.5 µM | SW-620 45.8 µM | SK-OV-3 53.1 µM | KM12 52 µM | UO-31 3.96 µM | PC-3 28 µM | DU-145 44.2 µM | OVCAR-8 37.6 µM | NCI/ADR-RES 21.7 µM | HOP-92 29.1 µM | MDA-MB-435 36.5 µM | Hs-578T 31.6 µM | HT-29 19 µM | SN12C 38 µM | NCI-H226 29.9 µM | OVCAR-3 13.6 µM

OC1CCCCCCCCCCC1[S+]1CCCC1.O[B-](F)(F)F (configuration not stated)
inactive: A498 > 100 µM | MDA-MB-231 > 100 µM | SK-MEL-2 > 100 µM | SW-620 > 100 µM | SK-OV-3 > 100 µM | KM12 > 100 µM | UO-31 > 100 µM | PC-3 56.8 µM | DU-145 > 100 µM | OVCAR-8 > 100 µM | NCI/ADR-RES > 100 µM | HOP-92 44.1 µM | MDA-MB-435 > 100 µM | Hs-578T > 100 µM | HT-29 88.9 µM | SN12C > 100 µM | NCI-H226 50.9 µM | OVCAR-3 52.5 µM | UACC-257 38.8 µM
> 100 µM: HCT-15

CCN(CC)CCNc1ccc(/N=N/c2ccc(S(N)(=O)=O)cc2)c2ccccc12
4.52 µM: HCT-15
inactive: A498 14.1 µM | MDA-MB-231 4.33 µM | SK-MEL-2 5.9 µM | SW-620 3.3 µM | KM12 6.01 µM | UO-31 5.56 µM | PC-3 6.93 µM | DU-145 12 µM | OVCAR-8 5.82 µM | NCI/ADR-RES 24.2 µM | HOP-92 14.9 µM | MDA-MB-435 7.35 µM | Hs-578T 15.5 µM | HT-29 5.96 µM | SN12C 8.89 µM | NCI-H226 23.6 µM | OVCAR-3 2.43 µM | UACC-257 14.9 µM

CCCCCCCCCCCC[C@@H](O)[C@H]1CC[C@H]([C@H]2CC[C@H]([C@H](O)CC[C@H](O)CCCCCCCC3=C[C@H](C)OC3=O)O2)O1
2.03 µM: HCT-15
active: UO-31 0.562 µM | UACC-257 0.136 µM
inactive: A498 2.52 µM | MDA-MB-231 2.62 µM | SK-MEL-2 1.52 µM | SW-620 1.94 µM | KM12 1.44 µM | PC-3 1.55 µM | DU-145 3.38 µM | OVCAR-8 1.82 µM | NCI/ADR-RES 1.29 µM | HOP-92 2.16 µM | MDA-MB-435 1.77 µM | Hs-578T 2.18 µM | HT-29 1.76 µM | SN12C 3.22 µM | NCI-H226 1.67 µM | OVCAR-3 1.58 µM

NCC(O)CSCc1ccc(Cl)cc1 (configuration not stated)
inactive: A498 > 100 µM | MDA-MB-231 > 100 µM | SW-620 > 100 µM | SK-OV-3 > 100 µM | KM12 > 100 µM | UO-31 > 100 µM | PC-3 > 100 µM | DU-145 > 100 µM | OVCAR-8 > 100 µM | NCI/ADR-RES > 100 µM | HOP-92 > 100 µM | MDA-MB-435 > 100 µM | Hs-578T > 100 µM | HT-29 > 100 µM | SN12C > 100 µM | NCI-H226 > 100 µM | OVCAR-3 > 100 µM | UACC-257 > 100 µM
> 100 µM: HCT-15

NCCCNCCCCNCCCN [SPERMINE TETRAHYDROCHLORIDE]
2.67 µM: HCT-15
inactive: A498 > 100 µM | MDA-MB-231 > 43.6 µM | SK-MEL-2 > 100 µM | SW-620 3.66 µM | SK-OV-3 > 38.7 µM | KM12 > 100 µM | UO-31 2.23 µM | PC-3 > 100 µM | DU-145 10.6 µM | OVCAR-8 34.3 µM | NCI/ADR-RES 44.6 µM | HOP-92 1.93 µM | MDA-MB-435 > 41.2 µM | Hs-578T 11.9 µM | HT-29 15.6 µM | SN12C 4.41 µM | NCI-H226 > 100 µM | UACC-257 > 71.1 µM

Reference: ChEMBL document CHEMBL1201862, “PubChem BioAssay data set” (2004)
